“Also recorded” adds a separate entry of the source. Like-named read-outs stand apart in the source and are kept apart here. Residues, ends and D or L forms follow the SMILES beside them. *: point of attachment. X2 = O=C(C*)Nc1ccc([As](O)O)cc1; X1 = O=C(C*)Nc1ccccc1[As](O)O
Key:
MPTP [1] = target: T1, MPTP (Rattus norvegicus, UniProt Q09073); format: biochemical
T1 construct: Mitochondria were isolated from the livers of ˜250 g male Wistar rats; from tissue; host or cells: rat liver mitochondria (male Wistar rats)
T1 sequence (Q09073 2-298 limits assumed): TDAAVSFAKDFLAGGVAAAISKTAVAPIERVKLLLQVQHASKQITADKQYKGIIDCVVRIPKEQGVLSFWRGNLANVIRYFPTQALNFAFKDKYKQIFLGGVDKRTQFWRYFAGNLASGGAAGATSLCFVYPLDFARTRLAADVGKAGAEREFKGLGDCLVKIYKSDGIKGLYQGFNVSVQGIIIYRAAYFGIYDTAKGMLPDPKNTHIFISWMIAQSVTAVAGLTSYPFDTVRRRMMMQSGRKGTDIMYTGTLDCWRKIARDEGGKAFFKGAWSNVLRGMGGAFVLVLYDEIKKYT

BAE cells [2] = experiment: cells; conditions: Bos taurus, read-out: IC50 (μM)*
BAE cells [3] = system: BAE cells
MPTP [4] = target: T1, MPTP; experiment: Mitochondria swelling assay (MPT induction, decrease in light scattering at 520 nm); format: biochemical; conditions: for blocking of the effect of GSAO on pore opening: 100 μM GSAO with 3 mM Mg^2+, 100 μM EGTA, 10 μM BKA, 5 μM CsA or 8 mM ADP; for swelling of isolated rat liver mitochondria: GSAO 25-200 μM, GSAA, GSCA 100 μM, 60 min
[5] = target: T2, mitochondrial permeability transition pore (Rattus norvegicus, UniProt Q09073); format: biochemical
T2 construct: Mitochondria were isolated from the livers of ˜250 g male Wistar rats; from tissue; host or cells: rat liver mitochondria (male Wistar rats)
T2 sequence (Q09073 2-298 limits assumed): T1 sequence (Q09073 2-298 limits assumed)

CAM angiogenesis = experiment: Chick chorioallantoic membrane (CAM) angiogenesis assay; format: in vivo; conditions: 5, 10 or 50 μg per pellet, 48 h
Description: Fertilised 3 day-old white Leghorn eggs (Spafas, Norwich, Conn.) were cracked, the embryos with intact yolks placed in 20×100 mm petri dishes and incubated for 3 days at 37° C. and 3% CO2 (Folkman, 1985). Methylcellulose (Fisher Scientific, Fair Lawn, N.J.) discs containing 5, 10 or 50 μg of either GSAA or GSAO were then applied to the CAM of individual embryos and incubated for 48 h at 37° C. and 3% CO2. The discs were made by desiccation of GSAA or GSAO in 10 μl of 0.45% methycellulose on teflon rods. The CAMs were observed using a stereomicroscope and scored for no obvious affect or inhibition of CAM angiogenesis as defined by avascular zones. On some occasions CAM blood vessels were injected with India ink and photographed.

BxPC-3 tumours = experiment: Primary tumour growth assay; format: in vivo, SCID mice; conditions: 10 mg/kg/day s.c., all experiments (BxPC-3, HT1080, LLC)
Description: (§1) Female 7 to 9 week old SCID or C57Bl6/J mice were used (Massachusetts General Hospital, Boston, Mass.). Mice were held in groups of 3 to 5 at a 12 hour day and night cycle and were given animal chow and water ad libidum. SCID or C57Bl6/J mice were anaesthetised by inhalation of isoflurane, the dorsal skin shaved and cleaned with ethanol, and a suspension of 2.5×10^6 BxPC-3, HT1080 or LLC cells in 0.2 mL of PBS, or saline for LLC cells, was injected S.C. in the proximal midline. LLC cells were prepared according to O'Reilly et al. (1997). Tumour volume was calculated using the relationship, a·b^2·0.52, where a is the longest and b the shortest diameter.

[6] = Tolerability in tumour-bearing mice; format: in vivo, SCID or C57Bl6/J mice
Description: as §1

BAE cells [7] = experiment: Cell viability assay, attached cells (methylene blue), proliferating or growth-quiescent cells; format: cell-based, bovine
Description: BAE or HMEC-1 cells were seeded at a density of 10^4 cells per cell into 96 well plates and allowed to adhere overnight and then treated as indicated.

BAE cells [8] = format: cell-based, bovine

SMILES | MPTP Swelling Rate Increase/GSAO* Mean (MPTP [1]) | Fold Increase (BAE cells [3]) | IC50 (BAE cells [3]; read-out: IC50 (μM)*) [µM] | other results
NCC(=O)NCC(=O)NC(CSCC(=O)Nc1ccc([As](O)O)cc1)C(=O)O (stereo not drawn) [Compound 7, H-Gly-Gly-Cys(CH2CONHC6H4-p-As{OH}2)—OH] | 2.2 | 0.44 |  | IC50 (BAE cells [2]): 19 µM
N=C(N)NCCC[C@H](N)C(=O)NCC(=O)N[C@@H](CC(=O)O)C(=O)N[C@@H](CSCC(=O)Nc1ccc([As](O)O)cc1)C(=O)O [Compound 6, H-Arg-Gly-Asp-Cys(CH2CONHC6H4-p-As{OH}2)—OH] (H-RGDC(X2)-OH) | 4.5 | 0.45 | 18.2 | 
NC(=O)CCC(NC(=O)C(Cc1ccccc1)NC(=O)C(Cc1ccc(O)cc1)NC(=O)C(N)CSCC(=O)Nc1ccc([As](O)O)cc1)C(=O)NC(CC(N)=O)C(=O)NC(CSCC(=O)Nc1ccc([As](O)O)cc1)C(=O)O (stereo not drawn) [Compound 9, H-Cys-(CH2CONHC6H4-p-As{OH}2)-Tyr-Phe-Gln-Asn-Cys-(CH2CONHC6H4-p-As{OH}2)—OH] (H-C(X2)YFQNC(X2)-OH; configuration not given here) |  | 0.64 |  | IC50 (BAE cells [3]; 72 h): 12.9 µM
CC(C)C(N)C(=O)NC(C(=O)NC(CSCC(=O)Nc1ccc([As](O)O)cc1)C(=O)NCC(=O)O)C(C)O (stereo not drawn) [Compound 8, H-Val-Thr-Cys(CH2CONHC6H4-p-As{OH}2)-Gly-OH] (H-VTC(X2)G-OH; configuration not given here) | 2.1 | 0.95 |  | IC50 (BAE cells [2]): 8.8 µM
O=C(O)CC(SCC(=O)Nc1ccc([As](O)O)cc1)C(=O)O (stereo not drawn) [Compound 13, 1-S—(CH2CONHC6H4-p-As{OH}2)-mercaptosuccinic acid] | 1.6 | 0.19 | 43.3 | 
O=C(O)CCSCC(=O)Nc1ccc([As](O)O)cc1 [Compound 11, 3-S—(CH2CONHC6H4-p-As{OH}2)-1-propionic acid] | 1.3 | 0.05 | 170 | 
NCC(=O)NCC(=O)N[C@@H](CSCC(=O)Nc1ccccc1[As](O)O)C(=O)O [Compound 22, H-Gly-Gly-Cys(CH2CONHC6H4-o-As{OH}2)—OH] | 6.9 | 46.9 | 0.18 | times more active than the corresponding p-arsenoxide analogue (BAE cells [3]): approximately 106 times
[Mg+2] [Mg^2+] |  |  |  | blocking of the effect of GSAO on pore opening (MPTP [4]): blocked; blocking of GSAO-dependent swelling ([5]; FIG. 18 as printed): blocked
O=C(CS[C@@H]1O[C@H](CO)[C@@H](O)[C@H](O)[C@H]1O)Nc1ccc([As](O)O)cc1 [Compound 14, 1-S—(CH2CONHC6H4-p-As{OH}2)-β-D-glucose] | 1.1 | 0.08 | 106 | 
O=C(O)CCC(NC(=O)NC(CSCC(=O)Nc1ccc([As](O)O)cc1)C(=O)O)C(=O)O (stereo not drawn) [Compound 3, retro-HO-Cys-(CH2CONHC6H4-p-As{OH}2)-carbonyl-Glu-OH] | 2.4 | 0.07 | 122 | 
O=C(O)Cn1nnnc1SCC(=O)Nc1ccc([As](O)O)cc1 [Compound 21, 5-S—(CH2CONHC6H4-p-As{OH}2)-1-tetrazolacetic acid] | 2.8 | 0.16 |  | IC50 (BAE cells [2]): 51.3 µM
N[C@@H](CCC(=O)N[C@@H](CSCC(=O)Nc1ccc([As](=O)(O)O)cc1)C(=O)NCC(=O)O)C(=O)O [GSAA, 4-(N—((S-glutathionyl)acetyl)amino)-benzenearsonic acid, reference compound] |  |  |  | inhibition of CAM angiogenesis (avascular zones) (CAM angiogenesis): did not inhibit CAM angiogenesis; also recorded: no affects; swelling of isolated rat liver mitochondria (MPTP [4]): without effect; inhibition of the rate of tumour growth compared to vehicle alone (BxPC-3 tumours): < 20%; adverse affects of administration ([6]; 10 mg/kg/day s.c.): no apparent adverse affects; morphological changes in the heart, lungs, liver, kidneys, and spleen ([6]; 10 mg/kg/day s.c.): no morphological changes; average mice weights over the course of the experiments ([6]; GSAO versus GSAA treatment groups): the same; effect on the viability of proliferating BAE cells (BAE cells [7]): no significant effect; effect on O2^− or H2O2 levels (BAE cells [8]): no effect
CO[C@H](C/C=C\C=C\CC/C=C/C[C@H](C)/C=C/C(=C\C(=O)O)CC(=O)O)/C(C)=C\C=C(/C)C(=O)O [BKA, Bonkrekic acid] |  |  |  | blocking of the effect of GSAO on pore opening (MPTP [4]): blocked
CC(C)C(N)C(=O)NC(C(=O)NC(CSCC(=O)Nc1ccccc1[As](O)O)C(=O)NCC(=O)O)C(C)O (stereo not drawn) [Compound 23, H-Val-Thr-Cys(CH2CONHC6H4-o-As{OH}2)-Gly-OH] (H-VTC(X1)G-OH; configuration not given here) | 5.4 | 19.8 | 0.42 | times more active than the corresponding p-arsenoxide analogue (BAE cells [3]): approximately 20 times
O=C(O)CN(CCOCCOCCN(CC(=O)O)CC(=O)O)CC(=O)O [EGTA, ethylene glycol-bis(beta-aminoethyl ether)-N,N,N′N′-tetraacetic acid] |  |  |  | blocking of the effect of GSAO on pore opening (MPTP [4]): blocked; blocking of GSAO-dependent swelling [5]: blocked
Nc1ncnc2c1ncn2[C@@H]1O[C@H](COP(=O)(O)OP(=O)(O)O)[C@@H](O)[C@H]1O [ADP] |  |  |  | blocking of the effect of GSAO on pore opening (MPTP [4]): blocked; blocking of the effect of o-GSAO on pore opening [5]: blocked
O=C(CSCCCS(=O)(=O)O)Nc1ccc([As](O)O)cc1 [Compound 10, 3-S—(CH2CONHC6H4-p-As{OH}2)-1-propanesulfonic acid] | 2.0 | 0.21 | 39 | 
N[C@@H](CCC(=O)N[C@@H](CSCC(=O)Nc1ccc(C(=O)O)cc1)C(=O)NCC(=O)O)C(=O)O [GSCA, 4-(N—((S-glutathionyl)acetyl)amino)benzoic acid] |  |  |  | swelling of isolated rat liver mitochondria (MPTP [4]): without effect; effect on the viability of proliferating BAE cells (BAE cells [7]; concentrations up to 1.0 mM): no significant effect
